Assay results published in patent US20130096119A1, “Isoquinolin-3-Ylurea Derivatives” (priority 2010, published 2013).
≈ marks a conversion by molar mass, not a printed value.

System: S. pneumoniae ATCC 49619
Assay: Minimal inhibitory concentration (MIC) by microdilution method (CLSI M7-A7)
Type: cell-based, Streptococcus pneumoniae
Settings: Streptococcus pneumoniae, ATCC49619, cation-adjusted Mueller-Hinton Broth supplemented with 3% (v/v) lysed horse blood
Procedure: Minimal inhibitory concentrations (MICs; mg/l) were determined in cation-adjusted Mueller-Hinton Broth (supplemented with 3% (v/v) lysed horse blood for testing Streptococcus pneumoniae) by a microdilution method following the description given in “Methods for Dilution Antimicrobial Susceptibility Tests for Bacteria that Grow Aerobically”, Approved standard, 7th ed., Clinical and Laboratory Standards Institute (CLSI) Document M7-A7, Wayne, Pa., USA, 2006.

Compound | MIC
CCNC(=O)Nc1cc2cccc(Nc3ccc(O)cc3)c2cn1 [Example 175, 1-ethyl-3-[8-(4-hydroxy-phenylamino)-isoquinolin-3-yl]-urea] | 16 µg/mL (≈ 49.6 µM)
CCNC(=O)Nc1cc2cccc(Nc3cncnc3)c2cn1 [Example 149, 1-ethyl-3-[8-(pyrimidin-5-ylamino)-isoquinolin-3-yl]-urea] | 2 µg/mL (≈ 6.49 µM)
CCNC(=O)Nc1cc2c(F)c(-c3cccnc3)cc(-c3cccnc3)c2cn1 [Example 53, 1-ethyl-3-(5-fluoro-6,8-di-pyridin-3-yl-isoquinolin-3-yl)-urea] | 8 µg/mL (≈ 20.6 µM)
CCNC(=O)Nc1cc2c(-c3cccc(S(N)(=O)=O)c3)ccc(C)c2cn1 [Example 13, 3-[3-(3-ethyl-ureido)-8-methyl-isoquinolin-5-yl]-benzenesulfonamide] | 2 µg/mL (≈ 5.2 µM)
CCNC(=O)Nc1cc2cc(-c3cncc(SC)c3)cc(C)c2cn1 [Example 96, 1-ethyl-3-[8-methyl-6-(5-methylsulfanyl-pyridin-3-yl)-isoquinolin-3-yl]-urea] | 2 µg/mL (≈ 5.67 µM)
CCNC(=O)Nc1cc2cccc(COc3cccnc3C)c2cn1.Cl [Example 259, 1-ethyl-3-[8-(2-methyl-pyridin-3-yloxymethyl)-isoquinolin-3-yl]-urea hydrochloride] | 4 µg/mL
CCNC(=O)Nc1cc2cccc(Nc3ccc(OC)c(C(=O)NC)c3)c2cn1 [Example 243, 5-[3-(3-ethyl-ureido)-isoquinolin-8-ylamino]-2-methoxy-N-methyl-benzamide] | 1 µg/mL (≈ 2.54 µM)
CCNC(=O)Nc1cc2cc(NCc3cccc(C(=O)O)c3)cc(C)c2cn1.Cl [Example 128, 3-{[3-(3-ethyl-ureido)-8-methyl-isoquinolin-6-ylamino]-methyl}-benzoic acid hydrochloride] | 8 µg/mL
CCNC(=O)Nc1cc2c(-c3cc(C)nc(C)c3)ccc(Nc3cccnc3)c2cn1 [Example 231, 1-[5-(2,6-dimethyl-pyridin-4-yl)-8-(pyridin-3-ylamino)-isoquinolin-3-yl]-3-ethyl-urea] | 0.5 µg/mL (≈ 1.21 µM)
CCNC(=O)Nc1cc2c(-c3ccnc(Cl)c3)ccc(C)c2cn1 [Example 27, 1-[5-(2-chloro-pyridin-4-yl)-8-methyl-isoquinolin-3-yl]-3-ethyl-urea] | 2 µg/mL (≈ 5.87 µM)
CCNC(=O)Nc1cc2c(Br)ccc(C)c2cn1 [Example 1, 1-(5-bromo-8-methyl-isoquinolin-3-yl)-3-ethyl-urea] | 1 µg/mL (≈ 3.24 µM)
CCNC(=O)Nc1cc2cccc(COc3ccccn3)c2cn1.Cl [Example 261, 1-ethyl-3-[8-(pyridin-2-yloxymethyl)-isoquinolin-3-yl]-urea hydrochloride] | 8 µg/mL
CCNC(=O)Nc1cc2cc(-c3ccc(CO)nc3)cc(C)c2cn1 [Example 101, 1-ethyl-3-[6-(6-hydroxymethyl-pyridin-3-yl)-8-methyl-isoquinolin-3-yl]-urea] | 1 µg/mL (≈ 2.97 µM)
CCNC(=O)Nc1cc2cc(NC(=O)COC)cc(C)c2cn1 [Example 195, N-[3-(3-ethyl-ureido)-8-methyl-isoquinolin-6-yl]-2-methoxy-acetamide] | 4 µg/mL (≈ 12.6 µM)
CCNC(=O)Nc1cc2cc(-c3ccc4ccccc4c3)cc(C)c2cn1 [Example 79, 1-ethyl-3-(8-methyl-6-naphthalen-2-yl-isoquinolin-3-yl)-urea] | 1 µg/mL (≈ 2.81 µM)
CCNC(=O)Nc1cc2c(-c3ccnc(C)c3)ccc(Nc3cccc(C(=O)N(C)C)c3)c2cn1 [Example 248, 3-[3-(3-ethyl-ureido)-5-(2-methyl-pyridin-4-yl)-isoquinolin-8-ylamino]-N,N-dimethyl-benzamide] | 0.5 µg/mL (≈ 1.07 µM)

Compound | MIC
CCNC(=O)Nc1cc2cccc(Nc3ccc(OC)cn3)c2cn1 [Example 181, 1-ethyl-3-[8-(5-methoxy-pyridin-2-ylamino)-isoquinolin-3-yl]-urea] | 8 µg/mL (≈ 23.7 µM)
CCNC(=O)Nc1cc2c(-c3cccnc3)ccc(C)c2cn1 [Example 50, 1-ethyl-3-(8-methyl-5-pyridin-3-yl-isoquinolin-3-yl)-urea] | 8 µg/mL (≈ 26.1 µM)
CCNC(=O)Nc1cc2c(-c3cnn(C)c3)ccc(C)c2cn1.Cl [Example 284, 1-ethyl-3-[8-methyl-5-(1-methyl-1H-pyrazol-4-yl)-isoquinolin-3-yl]-urea hydrochloride] | 4 µg/mL
CCNC(=O)Nc1cc2c(-c3ccc(C(=O)NC)cc3)ccc(C)c2cn1 [Example 6, 4-[3-(3-ethyl-ureido)-8-methyl-isoquinolin-5-yl]-N-methyl-benzamide] | 0.5 µg/mL (≈ 1.38 µM)
CCNC(=O)Nc1cc2cccc(Cn3ccnn3)c2cn1 [Example 298, 1-ethyl-3-(8-[1,2,3]triazol-1-ylmethyl-isoquinolin-3-yl)-urea] | 4 µg/mL (≈ 13.5 µM)
CCNC(=O)Nc1cc2cc(-c3cccc(C(C)=O)c3)cc(C)c2cn1 [Example 29, 1-[6-(3-acetyl-phenyl)-8-methyl-isoquinolin-3-yl]-3-ethyl-urea] | 0.5 µg/mL (≈ 1.44 µM)
CCNC(=O)Nc1cc2cccc(Nc3cccc(C(=O)OC)n3)c2cn1.Cl [Example 166, 6-[3-(3-ethyl-ureido)-isoquinolin-8-ylamino]-pyridine-2-carboxylic acid methyl ester hydrochloride] | 8 µg/mL
CCNC(=O)Nc1cc2c(-c3ccc(O)cc3)ccc(Nc3cccnc3)c2cn1 [Example 228, 1-ethyl-3-[5-(4-hydroxy-phenyl)-8-(pyridin-3-ylamino)-isoquinolin-3-yl]-urea] | 2 µg/mL (≈ 5.01 µM)
CCNC(=O)Nc1cc2cc(-c3ccc(S(N)(=O)=O)cc3)cc(C)c2cn1 [Example 38, 4-[3-(3-ethyl-ureido)-8-methyl-isoquinolin-6-yl]-benzenesulfonamide] | 1 µg/mL (≈ 2.6 µM)
CCNC(=O)Nc1cc2c(-c3cncc(F)c3)ccc(C)c2cn1 [Example 9, 1-ethyl-3-[5-(5-fluoro-pyridin-3-yl)-8-methyl-isoquinolin-3-yl]-urea] | 2 µg/mL (≈ 6.17 µM)
CCNC(=O)Nc1cc2cccc(NCc3cccnc3)c2cn1 [Example 71, 1-ethyl-3-{8-[(pyridin-3-ylmethyl)-amino]-isoquinolin-3-yl}-urea] | 16 µg/mL (≈ 49.8 µM)
CCNC(=O)Nc1cc2cccc(Nc3ccc(OC)nc3)c2cn1 [Example 214, 1-ethyl-3-[8-(6-methoxy-pyridin-3-ylamino)-isoquinolin-3-yl]-urea] | 16 µg/mL (≈ 47.4 µM)
CCNC(=O)Nc1cc2c(-c3ccncc3)ccc(Nc3cccc(C)n3)c2cn1 [Example 219, 1-ethyl-3-[8-(6-methyl-pyridin-2-ylamino)-5-pyridin-4-yl-isoquinolin-3-yl]-urea] | 0.25 µg/mL (≈ 0.627 µM)
CCNC(=O)Nc1cc2cc(-c3cncc(C)c3)cc(C)c2cn1 [Example 39, 1-ethyl-3-[8-methyl-6-(5-methyl-pyridin-3-yl)-isoquinolin-3-yl]-urea] | 1 µg/mL (≈ 3.12 µM)
CCNC(=O)Nc1cc2cccc(Nc3ccnc(OC)c3)c2cn1 [Example 180, 1-ethyl-3-[8-(2-methoxy-pyridin-4-ylamino)-isoquinolin-3-yl]-urea] | 4 µg/mL (≈ 11.9 µM)
CCNC(=O)Nc1cc2cc(NCc3cccc(-n4cncn4)c3)cc(C)c2cn1 [Example 187, 1-ethyl-3-[8-methyl-6-(3-[1,2,4]-triazol-1-yl-benzylamino)-isoquinolin-3-yl]-urea] | 8 µg/mL (≈ 19.9 µM)

Same assay, conditions: cation-adjusted Mueller-Hinton Broth supplemented with 3% (v/v) lysed horse blood

Compound | MIC for S. pneumoniae ATCC 49619
CCNC(=O)Nc1cc2cc(C(NC(C)=O)c3ccccc3)cc(C)c2cn1 (stereo not shown) [Example 17, N-{1-[3-(3-ethyl-ureido)-8-methyl-isoquinolin-6-yl]-benzyl}-acetamide] | 1 mg/L
N-{1-[3-(3-ethyl-ureido)-8-methyl-isoquinolin-6-yl]-phenyl}-acetamide [Example 18] | 0.25 mg/L
